Results reported in US11312790B2, “Production method for pentosan polysulfate” (OJI HOLDINGS CORPORATION, priority 2016, dated 2022).

Key:
factor Xa = test: Measurement of anti-Xa activity using Test Team Heparin S; format: biochemical; details: Test Team Heparin S kit
Text: In general, anticoagulant activity is based on the activity of inhibiting blood coagulation factors. That is, when anticoagulant activity is high, a blood coagulation reaction is inhibited. Blood coagulation factors refer to the action system of a series of molecules in a living body for coagulating blood when bleeding etc. Successive activation of a large number of blood coagulation factors agglutinates fibrin, and stops bleeding in the bleeding area. Representative examples of blood coagulation factors include factor Xa and factor IIa. Blood coagulation can be inhibited by inhibiting the activity of these factors. Here, the factor Xa inhibitory activity (anti-Xa activity) can be measured using Test Team (registered trademark) Heparin S (manufactured by Sekisui Medical Co., Ltd.). Measurement of Anti-Xa Activity The anti-Xa activity of pentosan polysulfate sodium was measured using Test Team (registered trademark) Heparin S (manufactured by Sekisui Medical Co., Ltd.).

factor IIa = target: T1, factor IIa (Homo sapiens, UniProt P00734); test: Measurement of anti-IIa activity using Biophen heparin anti-IIa; format: biochemical; details: Biophen heparin anti-IIa kit
T1 construct: purchased Hyphen BioMed Biophen heparin anti-IIa
Text: In general, anticoagulant activity is based on the activity of inhibiting blood coagulation factors. That is, when anticoagulant activity is high, a blood coagulation reaction is inhibited. Blood coagulation factors refer to the action system of a series of molecules in a living body for coagulating blood when bleeding etc. Successive activation of a large number of blood coagulation factors agglutinates fibrin, and stops bleeding in the bleeding area. Representative examples of blood coagulation factors include factor Xa and factor IIa. Blood coagulation can be inhibited by inhibiting the activity of these factors. The factor IIa inhibitory activity (anti-IIa activity) can be measured using Biophen heparin anti-IIa (manufactured by Hyphen BioMed). Measurement of Anti-IIa Activity The anti-IIa activity of pentosan polysulfate sodium was measured using Biophen heparin anti-IIa (manufactured by Hyphen BioMed).

Row | Substance | Anti-Xa activity (factor Xa) | Anti-IIa activity (factor IIa)
1 | pentosan polysulfate sodium [Example 5] | 0.2297 IU/mg | 0.0976 IU/mg
2 | pentosan polysulfate sodium [Example 2] | 0.2588 IU/mg | 0.1845 IU/mg
3 | pentosan polysulfate sodium [Example 3] | 0.2439 IU/mg | 0.0676 IU/mg
4 | pentosan polysulfate sodium [Example 4] | 0.2419 IU/mg | 0.0934 IU/mg
5 | pentosan polysulfate sodium [Example 1] | 0.2047 IU/mg | 0.1405 IU/mg
6 | pentosan polysulfate sodium [Comparative Example 1, reference compound] | 0.0840 IU/mg | 0.0221 IU/mg
